According to article PMC5641089, “WX-132-18B, a novel microtubule inhibitor, exhibits promising anti-tumor effects” (Oncotarget, 2017):

Tests used:
[1] = system: T1, tubulin; experiment: competitive colchicine-tubulin fluorescence assay; limited trypsin proteolysis; assay type: binding, Canis lupus familiaris
T1 construct: tubulin prepared from fresh dog brain tissue; with alpha/beta-tubulin heterodimer

[2] = system: T1, tubulin; experiment: competition with BODIPY FL-vinblastine (fluorescence); assay type: binding, Canis lupus familiaris

| IC50 [1] [µM] | SMILES | IC50 [2] [µM] |
| --- | --- | --- |
| 0.47 ± 0.1 | COc1ccc2c(c1)NC(=O)CN2c1nc(C)nc2ccccc12 [WX-132-18B] | – |
| – | CC[C@]1(O)C[C@H]2CN(CCc3c([nH]c4ccccc34)[C@@](C(=O)OC)(c3cc4c(cc3OC)N(C=O)[C@H]3[C@@](O)(C(=O)OC)[C@H](OC(C)=O)[C@]5(CC)C=CCN6CC[C@]43[C@@H]65)C2)C1 [vincristine] | 6.97 ± 1.61 |
